The values below come from patent publication US6627639B2, “Uses for indoletetrahydropyridine derivatives of 2,3-dihydro-7H-[1,4]dioxino-[2,3-e]indole” (Wyeth, priority 2001, dated 2003).

For orientation: Ki means the equilibrium dissociation constant of an inhibitor or competing ligand from its target. One may read the melting point as the temperature, or range, at which the solid turns liquid. Broadly, the IC50 is the midpoint of a concentration-inhibition curve.

One data set has as its target T1, human 5-HT1A receptors (Homo sapiens, UniProt P08908).
T1 construct: expressed in transfected cells; host or cells: CHO cells
T1 sequence (P08908 1-422): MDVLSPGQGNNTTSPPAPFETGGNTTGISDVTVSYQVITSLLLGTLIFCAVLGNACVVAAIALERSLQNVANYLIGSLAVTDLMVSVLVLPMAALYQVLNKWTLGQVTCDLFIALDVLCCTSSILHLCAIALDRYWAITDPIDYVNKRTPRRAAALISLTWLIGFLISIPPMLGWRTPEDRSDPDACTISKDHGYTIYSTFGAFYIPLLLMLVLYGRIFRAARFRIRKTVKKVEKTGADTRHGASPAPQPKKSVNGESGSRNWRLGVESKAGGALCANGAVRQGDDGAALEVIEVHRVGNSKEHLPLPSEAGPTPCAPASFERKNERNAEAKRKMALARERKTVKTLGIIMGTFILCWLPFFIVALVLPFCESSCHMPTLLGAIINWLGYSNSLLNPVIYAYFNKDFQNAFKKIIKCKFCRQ
Put plainly: [3H] 8-OHDPAT displacement, 5-HT1A receptor affinity. It is filed as binding. The source says: High affinity for the serotonin 5-HT1A receptor was established by testing the claimed compound's ability to displace [^3H] 8-OHDPAT (dipropylaminbtetralin) from the 5-HT1A serotonin receptor following a modification of the procedure of Hall et al., J. Neurochem. 44, 1685 (1985) which utilizes CHO cells stably transfected with human 5-HT1A receptors.

For a further data set, the target named is T2, serotonin transporter (Rattus norvegicus, UniProt P31652).
T2 construct: displace ^3H-paroxetine from male rat frontal cortical membranes; from tissue; host or cells: male rat frontal cortex membranes
T2 sequence (P31652 whole entry): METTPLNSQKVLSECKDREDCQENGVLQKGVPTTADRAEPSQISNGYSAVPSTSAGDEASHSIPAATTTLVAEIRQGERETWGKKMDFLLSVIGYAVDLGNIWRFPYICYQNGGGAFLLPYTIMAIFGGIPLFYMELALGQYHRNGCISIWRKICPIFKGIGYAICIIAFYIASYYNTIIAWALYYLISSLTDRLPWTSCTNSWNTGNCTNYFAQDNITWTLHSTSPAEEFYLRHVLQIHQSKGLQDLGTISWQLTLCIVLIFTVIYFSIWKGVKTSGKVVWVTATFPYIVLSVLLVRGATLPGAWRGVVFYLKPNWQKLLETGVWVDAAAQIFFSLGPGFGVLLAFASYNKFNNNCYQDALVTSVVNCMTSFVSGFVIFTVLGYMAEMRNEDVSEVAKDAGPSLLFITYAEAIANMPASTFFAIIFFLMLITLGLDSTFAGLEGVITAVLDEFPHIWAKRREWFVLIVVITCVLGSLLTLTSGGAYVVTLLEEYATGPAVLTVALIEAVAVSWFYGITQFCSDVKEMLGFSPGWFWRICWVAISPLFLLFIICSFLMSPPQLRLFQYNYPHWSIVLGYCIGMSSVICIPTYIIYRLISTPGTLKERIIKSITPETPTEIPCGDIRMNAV
Put plainly: 3H-paroxetine displacement, serotonin transporter affinity. It is filed as binding.

The target of data set [1] is T3, cloned human 5-HT1A receptors (Homo sapiens, UniProt P08908).
T3 construct: expressed in transfected cells
T3 sequence (P08908 1-422): T1 sequence (P08908 1-422)
In words: 35S-GTPγS binding assay, 5-HT1A antagonist function. It counts as biochemical. The note with it: reversal of 8-OHDPAT effect on 35S-GTPγS binding. The procedure:
Antagonist activity at 5-HT1A receptors was established by using a ^35S-GTPγS binding assay similar to that used by Lazareno and Birdsall (Br. J. Pharmacol. 109: 1120, 1993), in which the test compound's ability to affect the binding of ^35S-GTPγS to membranes containing cloned human 5-HT1A receptors was determined. Agonists produce an increase in binding whereas antagonists produce no increase but rather reverse the effects of the standard agonist 8-OHDPAT. The test compound's maximum inhibitory effect is represented as the Imax, while its potency is defined by the IC50.
(GTPγS is a poorly hydrolysed GTP analogue; its binding reports G protein activation.)

In the case of `Fc1ccc2[nH]cc(C3=CCN(CC4COc5ccc6[nH]ccc6c5O4)CC3)c2c1` (stereo not shown) [Example 3, 2-{[4-(5-Fluoro-1H-indol-3-yl)-3,6-dihydropyridin-1(2H)-yl]methyl}-2,3-dihydro-7H-[1,4]dioxino[2,3-e]indole], the melting point came out at 112 °C. Besides, affinity on human 5-HT1A receptors was put at a Ki of 2.45 nM. The affinity at serotonin transporter corresponds to a Ki of 1.23 nM. Also, in data set [1], the “5-HT1A Function Imax (maximum inhibitory effect)” value came to 100 and the 50% inhibitory concentration (IC50) worked out at 11.3 nM.

As to `CCc1cc2c3c(ccc2[nH]1)OCC(CN1CC=C(c2c[nH]c4ccccc24)CC1)O3` (stereo not shown) [Example 4, 8-Ethyl-2-[(4-(1H-indol-3-yl)-3,6-dihydropyridin-1(2H)-yl)methyl]-2,3-dihydro-7H-[1,4]dioxino[2,3-e]indole], the inhibitory constant (Ki) on human 5-HT1A receptors came to 4.56 nM; on serotonin transporter it was 10 nM. In addition, in data set [1], the “5-HT1A Function Imax (maximum inhibitory effect)” value is recorded as 78. The half-maximal inhibitory concentration (IC50) in data set [1] turned out to be 73 nM.

As to `Cc1cc2c3c(ccc2[nH]1)OCC(CN1CC=C(c2c[nH]c4ccccc24)CC1)O3` (stereo not shown) [Example 1, 2-[(4-(1H-Indol-3-yl)-3,6-dihydropyridin-1(2H)-yl)methyl]-8-methyl-2,3-dihydro-7H-[1,4]dioxino[2,3-e]indole], the melting point lay within 212 to 215 °C. Moreover, the inhibitory constant (Ki) on human 5-HT1A receptors turned out to be 0.45 nM. The affinity at serotonin transporter, expressed as Ki, was 3.44 nM. In data set [1], the “5-HT1A Function Imax (maximum inhibitory effect)” value is given as 100 and the IC50 came to 16 nM.

In the case of `CCc1cc2c3c(ccc2[nH]1)OCC(CN1CC=C(c2c[nH]c4ccccc24)CC1)O3` (stereo not shown) (hydrate or solvate) [Example 4, 8-Ethyl-2-[(4-(1H-indol-3-yl)-3,6-dihydropyridin-1(2H)-yl)methyl]-2,3-dihydro-7H-[1,4]dioxino[2,3-e]indole], the melting point fell in the range of 175 to 177 °C.

`CCc1cc2c3c(ccc2[nH]1)OCC(CN1CC=C(c2c[nH]c4ccc(F)cc24)CC1)O3` (stereo not shown) (hydrate or solvate) [Example 5, 8-Ethyl-2-[(4-(5-fluoro-1H-indol-3-yl)-3,6-dihydropyridin-1(2H)-yl)methyl]2,3-dihydro-7H-[1,4]dioxino[2,3-e]indole] registered a melting point of 81 to 82 °C.

As to `CCc1cc2c3c(ccc2[nH]1)OCC(CN1CC=C(c2c[nH]c4ccc(F)cc24)CC1)O3` (stereo not shown) [Example 5, 8-Ethyl-2-[(4-(5-fluoro-1H-indol-3-yl)-3,6-dihydropyridin-1(2H)-yl)methyl]2,3-dihydro-7H-[1,4]dioxino[2,3-e]indole], the results for the Ki on human 5-HT1A receptors and on serotonin transporter were 26.3 nM and 10 nM, respectively. In addition, the “5-HT1A Function Imax (maximum inhibitory effect)” value in data set [1] was determined as 98. The IC50 in data set [1] turned out to be 265 nM.

For the molecule `C1=C(c2c[nH]c3ccccc23)CCN(CC2COc3ccc4[nH]ccc4c3O2)C1` (stereo not shown) [Example 2, 2-[(4-(1H-Indol-3-yl)-3,6-dihydropyridin-1(2H)-yl)methyl]-2,3-dihydro-7H-[1,4]dioxino[2,3-e]indole], the melting point came out at 126 °C. Also, the Ki at human 5-HT1A receptors is 1.55 nM. This molecule also gave a Ki at serotonin transporter of 0.77 nM. Further, in data set [1], the “5-HT1A Function Imax (maximum inhibitory effect)” value worked out at 52 and the 50% inhibitory concentration (IC50) stood at 23 nM.
